Results from ChEMBL document CHEMBL4261581, “Synthesis and evaluation of 4-cycloheptylphenols as selective Estrogen receptor-β agonists (SERBAs)” (Eur J Med Chem, 2018).
Calls of active or inactive are those of the source. The rule behind the calls is not given here.

Key:
Estrogen receptor [1] = target: T1, Estrogen receptor (Homo sapiens, UniProt P03372); experiment: Agonist activity at full length ERalpha (unknown origin) after 24 hrs by ERE-driven luciferase reporter gene assay
T1 sequence (P03372 whole entry): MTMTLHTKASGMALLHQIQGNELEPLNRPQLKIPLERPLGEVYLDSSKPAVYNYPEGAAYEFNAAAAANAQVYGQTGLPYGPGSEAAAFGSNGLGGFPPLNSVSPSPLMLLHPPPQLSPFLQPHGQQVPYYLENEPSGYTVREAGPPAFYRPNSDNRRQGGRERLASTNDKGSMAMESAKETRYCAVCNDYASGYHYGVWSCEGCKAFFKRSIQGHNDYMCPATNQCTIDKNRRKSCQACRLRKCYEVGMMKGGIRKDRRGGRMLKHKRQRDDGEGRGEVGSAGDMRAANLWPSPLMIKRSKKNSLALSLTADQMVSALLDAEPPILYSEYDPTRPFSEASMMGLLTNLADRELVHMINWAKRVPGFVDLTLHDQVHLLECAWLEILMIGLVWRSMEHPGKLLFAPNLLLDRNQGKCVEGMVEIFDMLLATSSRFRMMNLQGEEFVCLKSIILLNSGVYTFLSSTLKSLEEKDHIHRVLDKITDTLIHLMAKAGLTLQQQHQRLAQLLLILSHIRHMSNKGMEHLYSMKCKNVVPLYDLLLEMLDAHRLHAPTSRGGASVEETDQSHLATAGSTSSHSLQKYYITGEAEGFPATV

Estrogen receptor beta [2] = target: T2, Estrogen receptor beta (Homo sapiens, UniProt Q92731)
Description: Antagonist activity at full length ERbeta (unknown origin) assessed as reduction in E2 induced response after 24 hrs by cell based ERE-driven luciferase reporter gene assay

Estrogen receptor [3] = target: T1, Estrogen receptor; experiment: Antagonist activity at full length ERalpha (unknown origin) assessed as reduction in E2 induced response after 24 hrs by cell based ERE-driven luciferase reporter gene assay
Estrogen receptor beta [4] = target: T2, Estrogen receptor beta; experiment: Agonist activity at full length ERbeta (unknown origin) after 24 hrs by cell based ERE-driven luciferase reporter gene assay
Estrogen receptor beta [5] = target: T2, Estrogen receptor beta; experiment: Inhibition of fluorescein-tagged estrogen binding to GST-tagged ERbeta (unknown origin) ligand binding domain after 1 hr by LanthaScreen TR-FRET assay
Estrogen receptor [6] = target: T1, Estrogen receptor; experiment: Inhibition of fluorescein-tagged estrogen binding to GST-tagged ERalpha (unknown origin) ligand binding domain after 1 hr by LanthaScreen TR-FRET assay
Homo sapiens [7] = species: Homo sapiens; experiment: Selectivity index, ratio of IC50 for full-length human ERalpha to IC50 for full length human ERbeta
Progesterone receptor = Progesterone receptor (Homo sapiens, UniProt P06401); experiment: (§1) Agonist activity at GAL4 DNA-binding domain fused PR (unknown origin) ligand binding domain expressed in UAS-bla HEK 293T cells assessed as beta-lactamase transcriptional activation by FRET-based GeneBLAzer assay; assay type: cell-based
Estrogen receptor beta [8] = target: T2, Estrogen receptor beta; experiment: Agonist activity at ERbeta (unknown origin) ligand binding domain assessed as fluorescein-labeled coactivator peptide recruitment by LanthaScreen TR-FRET assay
[9] = target: Vitamin D3 receptor (Homo sapiens) (UniProt P11473); experiment: Agonist activity at GAL4 DNA-binding domain fused VDR (unknown origin) ligand binding domain expressed in UAS-bla HEK 293T cells assessed as beta-lactamase transcriptional activation by FRET-based GeneBLAzer assay; assay type: cell-based
[10] = target: Mineralocorticoid receptor (Homo sapiens) (UniProt P08235); experiment: Agonist activity at GAL4 DNA-binding domain fused MR (unknown origin) ligand binding domain expressed in UAS-bla […] assessed as beta-lactamase transcriptional activation by FRET-based GeneBLAzer assay; assay type: cell-based
[11] = target: Progesterone receptor (Homo sapiens) (UniProt P06401); experiment: as §1; assay type: cell-based
Estrogen receptor beta [12] = target: T2, Estrogen receptor beta; experiment: Agonist activity at GAL4 DNA-binding domain fused ERbeta (unknown origin) ligand binding domain expressed in UAS-bla GripTite 293 cells assessed as beta-lactamase transcriptional activation by FRET-based GeneBLAzer assay; assay type: cell-based
Homo sapiens [13] = species: Homo sapiens; experiment: Selectivity index, ratio of EC50 for ERalpha (unknown origin) LBD by fluorescein-labeled coactivator peptide recruitment based LanthaScreen TR-FRET assay to EC50 for ERbeta (unknown origin) LBD by fluorescein-labeled coactivator peptide recruitment based LanthaScreen TR-FRET assay
[14] = target: Estrogen receptor (Homo sapiens) (UniProt P03372); experiment: Agonist activity at GAL4 DNA-binding domain fused ERalpha (unknown origin) ligand binding domain expressed in UAS-bla GripTite 293 cells assessed as beta-lactamase transcriptional activation by FRET-based GeneBLAzer assay; assay type: cell-based
Estrogen receptor [15] = target: T1, Estrogen receptor; experiment: Agonist activity at ERalpha (unknown origin) ligand binding domain assessed as fluorescein-labeled coactivator peptide recruitment by LanthaScreen TR-FRET assay
[16] = target: Peroxisome proliferator-activated receptor delta (Homo sapiens) (UniProt Q03181); experiment: (§2) Agonist activity at GAL4 DNA-binding domain fused PPARdelta receptor (unknown origin) ligand binding domain expressed in UAS-bla HEK 293T cells assessed as beta-lactamase transcriptional activation by FRET-based GeneBLAzer assay; assay type: cell-based
Homo sapiens [17] = species: Homo sapiens; experiment: Selectivity ratio for ERbeta (unknown origin) over ERalpha (unknown origin)
[18] = target: Beta-3 adrenergic receptor (Homo sapiens) (UniProt P13945); experiment: Displacement of [3H]-CGP12177 from human adrenergic beta3 receptor expressed in Flp-In HEK cells at 10 uM after 90 mins by microbeta scintillation counting method; assay type: cell-based
[19] = target: 5-hydroxytryptamine receptor 7 (Homo sapiens) (UniProt P34969); experiment: Displacement of [3H]-LSD from human 5-HT7A receptor expressed in stable HEK cells at 10 uM after 90 mins by microbeta scintillation counting method; assay type: cell-based
[20] = target: 5-hydroxytryptamine receptor 2B (Homo sapiens) (UniProt P41595); experiment: Displacement of [3H]-LSD from human 5-HT2B receptor expressed in stable HEK cells at 10 uM after 90 mins by microbeta scintillation counting method; assay type: cell-based
[21] = Solubility of the compound in buffer containing 20 mM potassium phosphate of pH 7.5 and 1% DMSO up to 250 uM by nephelometry; assay type: physicochemical
Cytochrome P450 3A4 = Cytochrome P450 3A4 (Homo sapiens, UniProt P08684); experiment: Inhibition of CYP3A4 (unknown origin) using luciferin-IPA as substrate preincubated for 10 mins followed by NADPH regeneration system addition and measured after 10 to 30 mins by Promega P450-GloScreening assay; assay type: ADME
hERG (KCNH2) = hERG (KCNH2) (Homo sapiens, UniProt Q12809); experiment: Displacement of [3H]-dofetilide from human ERG expressed in HEK cells at 10 uM after 90 mins by microbeta scintillation counting method; assay type: cell-based; details: HEK cells expressing human ERG, probe [3H]-dofetilide
[22] = target: 5-hydroxytryptamine receptor 1D (Homo sapiens) (UniProt P28221); experiment: Displacement of [3H]-5-CT from human 5-HT1D receptor expressed in HEKT cells at 10 uM after 90 mins by microbeta scintillation counting method; assay type: cell-based
[23] = target: Alpha-1A adrenergic receptor (Homo sapiens) (UniProt P35348); experiment: Displacement of [3H]-Prazosin from human adrenergic alpha1A receptor at 10 uM after 90 mins by microbeta scintillation counting method
[24] = target: Histamine H2 receptor (Homo sapiens) (UniProt P25021); experiment: Displacement of [125I]-iodoaminopotentidine from human histamine H2 receptor expressed in HEK Flp-In cells at 10 uM after 90 mins by microbeta scintillation counting method; assay type: cell-based
MCF7 = experiment: Antiproliferative activity against human MCF7 cells at 0.01 to 10 uM after 24 hrs by MTT assay; assay type: functional, cell-based
[25] = target: Alpha-1B adrenergic receptor (Homo sapiens) (UniProt P35368); experiment: Displacement of [3H]-Prazosin from human adrenergic alpha1B receptor expressed in HEKT cells at 10 uM after 90 mins by microbeta scintillation counting method; assay type: cell-based
[26] = target: Beta-1 adrenergic receptor (Homo sapiens) (UniProt P08588); experiment: Displacement of [3H]-Pindolol from human adrenergic beta1 receptor expressed in Flp-In CHO cells at 10 uM after 90 mins by microbeta scintillation counting method; assay type: cell-based
[27] = target: Sigma non-opioid intracellular receptor 1 (Homo sapiens) (UniProt Q99720); experiment: Displacement of [3H]-Pentazocine from human sigma1 receptor expressed in HEKT cells at 10 uM after 90 mins by microbeta scintillation counting method; assay type: cell-based
Cytochrome P450 2D6 = Cytochrome P450 2D6 (Homo sapiens, UniProt P10635); experiment: Inhibition of CYP2D6 (unknown origin) using luciferin-ME EGE as substrate preincubated for 10 mins followed by NADPH regeneration system addition and measured after 30 to 45 mins by Promega P450-GloScreening assay; assay type: ADME
[28] = target: 5-hydroxytryptamine receptor 6 (Homo sapiens) (UniProt P50406); experiment: Displacement of [3H]-LSD from human 5-HT6 receptor expressed in stable HEK cells at 10 uM after 90 mins by microbeta scintillation counting method; assay type: cell-based
Cytochrome P450 2C9 = Cytochrome P450 2C9 (Homo sapiens, UniProt P11712); experiment: Inhibition of CYP2C9 (unknown origin) using luciferin-H as substrate preincubated for 10 mins followed by NADPH regeneration system addition and measured after 30 mins by Promega P450-GloScreening assay; assay type: ADME
[29] = target: 5-hydroxytryptamine receptor 1A (Homo sapiens) (UniProt P08908); experiment: Displacement of [3H]-WAY100635 from human 5HT1A receptor expressed in stable CHO cells at 10 uM after 90 mins by microbeta scintillation counting method; assay type: cell-based
Cytochrome P450 1A2 = Cytochrome P450 1A2 (Homo sapiens, UniProt P05177); experiment: Inhibition of CYP1A2 (unknown origin) using luciferin-ME as substrate preincubated for 10 mins followed by NADPH regeneration system addition and measured after 10 to 30 mins by Promega P450-GloScreening assay; assay type: ADME
[30] = target: Sigma intracellular receptor 2 (Homo sapiens) (UniProt Q5BJF2); experiment: Displacement of [3H]-ditolylguanidine from human sigma2 receptor expressed in HEKT cells at 10 uM after 90 mins by microbeta scintillation counting method; assay type: cell-based
[31] = target: Histamine H2 receptor (Homo sapiens) (UniProt P25021); experiment: Displacement of [3H]-histamine from human histamine H2 receptor expressed in HEKT cells at 10 uM after 90 mins by microbeta scintillation counting method; assay type: cell-based
[32] = target: Peroxisome proliferator-activated receptor delta (Homo sapiens, UniProt Q03181); experiment: as §2; assay type: cell-based
Chain of Peroxisome proliferator-activated receptor delta (Q03181 whole entry): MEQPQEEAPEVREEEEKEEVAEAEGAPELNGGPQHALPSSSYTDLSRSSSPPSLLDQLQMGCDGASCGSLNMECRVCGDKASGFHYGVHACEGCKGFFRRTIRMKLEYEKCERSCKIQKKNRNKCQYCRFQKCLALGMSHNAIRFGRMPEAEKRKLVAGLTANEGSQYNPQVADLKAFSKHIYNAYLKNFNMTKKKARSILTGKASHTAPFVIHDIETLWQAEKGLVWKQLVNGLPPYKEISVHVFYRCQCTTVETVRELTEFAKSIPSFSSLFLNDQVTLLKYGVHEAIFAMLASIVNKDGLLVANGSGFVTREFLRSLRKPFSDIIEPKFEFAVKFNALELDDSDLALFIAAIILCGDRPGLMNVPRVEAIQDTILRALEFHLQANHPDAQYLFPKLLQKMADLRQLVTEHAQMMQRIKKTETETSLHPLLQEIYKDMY

T2 sequence (Q92731 whole entry): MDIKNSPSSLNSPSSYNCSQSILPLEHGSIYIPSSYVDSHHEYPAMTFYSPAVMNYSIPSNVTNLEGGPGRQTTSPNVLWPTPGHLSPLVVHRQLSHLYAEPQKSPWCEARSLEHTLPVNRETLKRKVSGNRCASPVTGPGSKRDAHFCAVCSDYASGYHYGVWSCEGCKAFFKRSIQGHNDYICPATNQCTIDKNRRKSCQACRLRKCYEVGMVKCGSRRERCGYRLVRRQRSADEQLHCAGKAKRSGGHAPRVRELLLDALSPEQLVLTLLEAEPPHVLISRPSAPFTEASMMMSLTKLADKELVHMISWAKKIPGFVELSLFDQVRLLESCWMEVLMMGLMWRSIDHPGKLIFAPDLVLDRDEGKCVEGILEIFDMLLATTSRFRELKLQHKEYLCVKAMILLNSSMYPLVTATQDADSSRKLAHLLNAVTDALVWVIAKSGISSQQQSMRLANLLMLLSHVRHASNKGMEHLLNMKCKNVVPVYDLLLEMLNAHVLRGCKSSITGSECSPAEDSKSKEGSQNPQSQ
Chain of Histamine H2 receptor (Homo sapiens) (P25021 whole entry): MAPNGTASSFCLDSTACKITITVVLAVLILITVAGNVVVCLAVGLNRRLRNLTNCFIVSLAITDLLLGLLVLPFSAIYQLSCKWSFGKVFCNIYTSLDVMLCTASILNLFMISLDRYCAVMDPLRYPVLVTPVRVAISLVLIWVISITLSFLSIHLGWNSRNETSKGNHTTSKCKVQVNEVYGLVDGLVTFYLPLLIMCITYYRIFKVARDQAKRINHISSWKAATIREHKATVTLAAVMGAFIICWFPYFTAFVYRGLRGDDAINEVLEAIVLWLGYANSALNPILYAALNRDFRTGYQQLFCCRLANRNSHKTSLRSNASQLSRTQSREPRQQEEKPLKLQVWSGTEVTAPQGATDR
Chain of 5-hydroxytryptamine receptor 2B (Homo sapiens) (P41595 whole entry): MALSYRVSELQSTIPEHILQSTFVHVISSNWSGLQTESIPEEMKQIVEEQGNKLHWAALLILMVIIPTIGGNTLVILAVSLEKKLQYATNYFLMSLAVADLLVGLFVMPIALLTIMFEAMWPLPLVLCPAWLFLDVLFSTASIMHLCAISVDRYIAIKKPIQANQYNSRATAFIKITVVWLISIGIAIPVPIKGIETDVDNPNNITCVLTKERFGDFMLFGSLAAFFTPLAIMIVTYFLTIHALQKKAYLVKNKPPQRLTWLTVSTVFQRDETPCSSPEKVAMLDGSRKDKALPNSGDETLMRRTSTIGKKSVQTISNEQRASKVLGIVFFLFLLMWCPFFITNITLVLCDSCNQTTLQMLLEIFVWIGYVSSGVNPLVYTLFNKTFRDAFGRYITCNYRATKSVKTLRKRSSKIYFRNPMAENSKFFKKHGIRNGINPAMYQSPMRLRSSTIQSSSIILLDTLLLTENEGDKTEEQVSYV
Chain of Vitamin D3 receptor (Homo sapiens) (P11473 whole entry, the tested form may be a part): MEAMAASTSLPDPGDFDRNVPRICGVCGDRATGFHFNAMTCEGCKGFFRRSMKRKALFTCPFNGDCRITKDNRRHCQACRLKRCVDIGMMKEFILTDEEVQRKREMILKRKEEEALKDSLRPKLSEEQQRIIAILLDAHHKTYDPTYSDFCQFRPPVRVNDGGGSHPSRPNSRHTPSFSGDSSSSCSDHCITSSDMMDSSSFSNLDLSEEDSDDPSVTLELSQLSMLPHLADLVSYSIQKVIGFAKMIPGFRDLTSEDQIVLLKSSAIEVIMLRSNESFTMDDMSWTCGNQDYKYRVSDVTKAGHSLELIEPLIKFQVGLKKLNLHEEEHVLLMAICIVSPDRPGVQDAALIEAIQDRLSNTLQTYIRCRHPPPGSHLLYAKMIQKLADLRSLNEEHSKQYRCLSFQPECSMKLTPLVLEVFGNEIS
Chain of Alpha-1B adrenergic receptor (Homo sapiens) (P35368 whole entry): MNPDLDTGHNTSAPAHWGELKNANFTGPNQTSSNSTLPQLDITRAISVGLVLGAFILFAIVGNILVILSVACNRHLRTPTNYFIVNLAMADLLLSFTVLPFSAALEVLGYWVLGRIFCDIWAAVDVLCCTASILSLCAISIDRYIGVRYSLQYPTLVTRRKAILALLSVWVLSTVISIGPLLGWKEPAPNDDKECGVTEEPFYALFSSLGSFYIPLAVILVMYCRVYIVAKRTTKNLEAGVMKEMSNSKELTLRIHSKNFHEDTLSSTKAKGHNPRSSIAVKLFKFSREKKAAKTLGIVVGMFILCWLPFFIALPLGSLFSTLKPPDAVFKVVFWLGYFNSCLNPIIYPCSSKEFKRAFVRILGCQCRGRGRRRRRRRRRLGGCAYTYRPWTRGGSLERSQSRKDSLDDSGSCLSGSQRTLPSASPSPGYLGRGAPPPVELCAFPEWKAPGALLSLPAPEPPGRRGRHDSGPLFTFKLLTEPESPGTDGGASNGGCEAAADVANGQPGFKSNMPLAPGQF
Chain of Peroxisome proliferator-activated receptor delta (Homo sapiens) (Q03181 whole entry, the tested form may be a part): as the sequence (Q03181 whole entry) above
Chain of 5-hydroxytryptamine receptor 7 (Homo sapiens) (P34969 whole entry): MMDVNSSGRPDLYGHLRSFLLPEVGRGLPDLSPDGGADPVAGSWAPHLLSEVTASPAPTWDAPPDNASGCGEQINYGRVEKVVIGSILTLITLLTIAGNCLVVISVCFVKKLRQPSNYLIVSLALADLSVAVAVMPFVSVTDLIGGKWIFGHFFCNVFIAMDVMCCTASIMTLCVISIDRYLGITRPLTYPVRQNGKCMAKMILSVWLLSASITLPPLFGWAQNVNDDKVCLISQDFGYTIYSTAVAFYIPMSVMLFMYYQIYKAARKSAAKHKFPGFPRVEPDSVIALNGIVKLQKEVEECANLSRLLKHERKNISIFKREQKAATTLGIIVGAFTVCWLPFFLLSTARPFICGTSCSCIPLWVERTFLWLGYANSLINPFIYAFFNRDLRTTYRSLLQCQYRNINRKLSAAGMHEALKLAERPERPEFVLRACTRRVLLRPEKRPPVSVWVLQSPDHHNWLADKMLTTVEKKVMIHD
Chain of Progesterone receptor (P06401 whole entry, the tested form may be a part): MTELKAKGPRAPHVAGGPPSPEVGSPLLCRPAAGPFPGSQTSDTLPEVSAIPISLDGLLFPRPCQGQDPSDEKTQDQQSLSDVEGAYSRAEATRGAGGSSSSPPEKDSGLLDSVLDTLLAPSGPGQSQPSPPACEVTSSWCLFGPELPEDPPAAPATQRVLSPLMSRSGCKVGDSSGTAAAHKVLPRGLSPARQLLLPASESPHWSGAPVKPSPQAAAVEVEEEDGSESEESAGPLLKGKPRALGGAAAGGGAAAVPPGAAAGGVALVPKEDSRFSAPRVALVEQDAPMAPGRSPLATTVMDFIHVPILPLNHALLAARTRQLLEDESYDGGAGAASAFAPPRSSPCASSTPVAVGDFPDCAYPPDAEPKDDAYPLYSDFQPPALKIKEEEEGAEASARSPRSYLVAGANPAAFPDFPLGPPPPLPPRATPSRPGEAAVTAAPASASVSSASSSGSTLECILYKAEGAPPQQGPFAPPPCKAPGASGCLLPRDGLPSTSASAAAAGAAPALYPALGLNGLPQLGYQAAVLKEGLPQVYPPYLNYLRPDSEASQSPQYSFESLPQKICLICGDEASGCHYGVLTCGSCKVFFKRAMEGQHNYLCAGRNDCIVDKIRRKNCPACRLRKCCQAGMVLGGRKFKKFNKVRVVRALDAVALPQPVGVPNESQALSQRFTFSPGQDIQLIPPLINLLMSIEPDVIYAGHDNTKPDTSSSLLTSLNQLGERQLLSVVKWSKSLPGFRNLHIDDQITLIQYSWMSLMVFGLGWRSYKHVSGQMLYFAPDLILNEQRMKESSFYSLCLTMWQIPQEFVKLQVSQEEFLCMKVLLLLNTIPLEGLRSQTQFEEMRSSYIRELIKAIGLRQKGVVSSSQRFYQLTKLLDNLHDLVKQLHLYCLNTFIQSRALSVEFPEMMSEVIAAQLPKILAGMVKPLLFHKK
Chain of 5-hydroxytryptamine receptor 1D (Homo sapiens) (P28221 whole entry): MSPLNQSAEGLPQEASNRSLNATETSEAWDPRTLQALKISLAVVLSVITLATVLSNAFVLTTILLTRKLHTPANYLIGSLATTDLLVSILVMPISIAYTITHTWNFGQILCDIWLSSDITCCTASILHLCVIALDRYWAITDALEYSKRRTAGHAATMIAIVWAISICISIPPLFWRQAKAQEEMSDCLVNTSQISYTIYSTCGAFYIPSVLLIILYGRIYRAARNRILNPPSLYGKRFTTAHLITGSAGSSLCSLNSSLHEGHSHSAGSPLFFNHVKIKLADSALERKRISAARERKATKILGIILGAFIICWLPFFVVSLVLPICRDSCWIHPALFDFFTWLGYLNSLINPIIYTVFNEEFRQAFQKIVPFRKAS

SMILES	EC50 (Estrogen receptor [1])	EC50 (Estrogen receptor beta [2])	EC50 (Estrogen receptor [3])	EC50 (Estrogen receptor beta [4])	EC50 (Estrogen receptor beta [5])	EC50 (Estrogen receptor [6])	further results
O/N=C1\CCCC(c2ccc(O)cc2)CC1 (racemic)	> 10000 nM	> 10000 nM	> 10000 nM	> 800 nM	600 nM	–	–
OC[C@H]1CCC[C@@H](c2ccc(O)cc2)CC1	> 10000 nM	> 10000 nM	> 10000 nM	121 nM	99 nM	221 nM	–
C=Cc1cc(O)cc2nc(-c3ccc(O)c(F)c3)oc12	–	–	–	–	–	–	Ratio IC50 (Homo sapiens [7]): 255
CCC(=O)[C@@]1(C)CC[C@H]2[C@@H]3CCC4=CC(=O)CCC4=C3CC[C@@]21C [PROMEGESTONE]	–	–	–	–	–	–	IC50 (Progesterone receptor): 0.236 nM
OC[C@@H]1CCC[C@H](c2ccc(O)cc2)CC1	> 11600 nM	> 11600 nM	> 11600 nM	51 nM	66 nM	199 nM	EC50 (Estrogen receptor beta [8]): 566 nM; Activity [9]: inactive; Activity [10]: inactive; Activity [11]: inactive; Activity (Estrogen receptor beta [12]): Active; Ratio EC50 (Homo sapiens [13]): 4.7; Activity [14]: Active; EC50 (Estrogen receptor [15]): 2660 nM; Activity [16]: inactive
Oc1ccc(C2CCCC(O)CC2)cc1 (racemic)	> 10000 nM	> 10000 nM	> 10000 nM	362 nM	42 nM	–	–
OC[C@H]1CCC[C@H](c2ccc(O)cc2)CC1 (stereo in doubt)	> 3000 nM	> 35600 nM	> 35600 nM	50 nM	18 nM	96 nM	–
OCCC1CCCC(c2ccc(O)cc2)CC1 (racemic)	> 10000 nM	> 10000 nM	> 10000 nM	139 nM	75 nM	–	–
C=Cc1cc(O)cc2nc(-c3ccc(O)cc3)oc12	–	–	–	–	–	–	Selectivity ratio (Homo sapiens [17]): 127
OCC1CCCC(c2ccc(O)cc2)CC1 (racemic)	10500 nM	> 100000 nM	> 10000 nM	33 nM	53 nM	99 nM	inhibition [18]: 16%; inhibition [19]: -8.5%; inhibition [20]: -7.3%; solubility [21]: Soluble; IC50 (Cytochrome P450 3A4): 33000 nM; inhibition at 1.5 h, 10 µM (hERG (KCNH2)): -1.7%; inhibition [22]: 25.3%; inhibition [23]: -3.7%; inhibition [24]: 2.7%; Activity (MCF7): Active; inhibition [25]: -4.9%; inhibition [26]: -4.8%; inhibition [27]: 17.1%; IC50 (Cytochrome P450 2D6): 73000 nM; inhibition [28]: 19%; IC50 (Cytochrome P450 2C9): 2700 nM; inhibition [29]: 14.6%; IC50 (Cytochrome P450 1A2): 130000 nM; inhibition [30]: 31.9%; inhibition [31]: -0.1%
N#Cc1cc(O)cc2c3c(oc12)-c1ccc(O)cc1CC3	–	–	–	–	–	–	Selectivity ratio (Homo sapiens [17]): 157
O=C1CCCC(c2ccc(O)cc2)CC1 (racemic)	–	–	–	–	435 nM	–	–
OC[C@@H]1CCC[C@@H](c2ccc(O)cc2)CC1 (stereo in doubt)	> 10000 nM	> 23200 nM	> 10000 nM	48 nM	28 nM	61 nM	–
CCCc1c(OCCCOc2ccc(OCC(=O)O)cc2)ccc(C(C)=O)c1O	–	–	–	–	–	–	IC50 [32]: 12.6 nM
Oc1ccc(C23CCCC(CC2)CO3)cc1 (racemic)	–	–	–	–	509 nM	–	–
